Measurements reported in patent US20160304461A1, “QUINOLONE COMPOUND AND PHARMACEUTICAL COMPOSITION” (OTSUKA PHARMACEUTICAL CO., LTD., priority 2007, published 2016).

How the values were obtained:
[1] = test system: human neuroblastoma cell lines SH-SY5Y; experiment: Improvement of mitochondrial dysfunction in MPP+-treated SH-SY5Y cells (Alamar Blue mitochondrial oxidation reduction activity); assay type: cell-based; conditions: SH-SY5Y cells in 1.5 mM MPP+ medium, relative to cells in DMSO alone = 100%, read-out: Fluorescence Intensity (%); for activity at 0.01 µg/mL: test compound 0.01 μg/ml; for activity at 0.03 µg/mL: test compound 0.03 μg/ml; for activity at 0.1 µg/mL: test compound 0.1 μg/ml; for activity at 0.3 µg/mL: test compound 0.3 μg/ml; for activity at 1 µg/mL: test compound 1 μg/ml
Protocol: Evaluation of Improvement of Mitochondrial Dysfunction using Human Neuroblastoma Cell Lines SH-SY5Y Treated with 1-methyl-4-phenylpyridinium (MPP^+)
In human neuroblastoma cell lines SH-SY5Y in which mitochondrial activity was injured by MPP^+ treatment (Bollimuntha S. et al., J Biol Chem, 280, 2132-2140 (2005) and Shang T. et al., J Biol Chem, 280, 34644-34653 (2005)), improvement of the mitochondrial dysfunction was evaluated on the basis of the measurement value of the mitochondrial oxidation reduction activity using Alamar Blue fluorescent dye after the compound addition (Nakai M. et. al, Exp Neurol, 179, 103-110 (2003)).
The human neuroblastoma cell lines SH-SY5Y were cultured in Dulbecco's Modified Eagle's Medium containing 10% fetal bovine serum (DMEM containing 50 units/ml penicillin and 50 μg/ml streptomycin as antibiotics) at 37° C. in the presence of 5% carbon dioxide. Cells were scattered on a poly-D-lysine-coated 96-well black plate at a concentration of 3-6×10^4 cells/cm^2 (medium amount: 100 μl/well), and cultured in the above medium for two days. Further, the medium was changed to a DMEM containing a 1% N2 supplement (N2-DMEM) or to a medium (100 μl/well) in which 1.5 mM MPP^+ was dissolved. The cells were cultured therein for 39 to 48 hours, and then subjected to a mitochondrial oxidation reduction activity measurement system. A sample compound that had been previously dissolved in dimethyl sulfoxide (DMSO) was diluted with N2-DMEM, and added in a volume of 10 μl/well 24 hours before the activity measurement (final compound concentration: 0.01 to 1 μg/ml).
After removal of the medium by suction, a balanced salt solution containing 10% Alamar Blue (154 mM sodium chloride, 5.6 mM potassium chloride, 2.3 mM calcium chloride, 1.0 mM magnesium chloride, 3.6 mM sodium bicarbonate, 5 mM glucose, 5 mM HEPES, pH 7.2) was added in a volume of 100 μl/well, and reacted in an incubator at 37° C. for 1 hour. The fluorescent intensity was detected using a fluorescence detector (a product of Hamamatsu Photonics K.K., excitation wavelength 530 nm, measurement wavelength 580 nm) to thereby measure the mitochondrial oxidation reduction activity.
The fluorescent intensity of the well of the cells cultured in a medium containing MPP^+ and in each of the sample compounds was relatively evaluated based on a 100% fluorescent intensity of the well of the cells cultured in a medium containing DMSO alone (final concentration: 0.1%).

| Structure (SMILES) | melting point [°C] | activity at 0.01 µg/mL [1] [%] | activity at 0.03 µg/mL [1] [%] | activity at 0.1 µg/mL [1] [%] | activity at 0.3 µg/mL [1] [%] | activity at 1 µg/mL [1] [%] |
| --- | --- | --- | --- | --- | --- | --- |
| CCCOc1ccc(F)c2c(=O)c(-c3ccc(OC)cc3)cn(C)c12 [Example 91, 5-Fluoro-3-(4-methoxyphenyl)-1-methyl-8-propoxy-1H-quinolin-4-one] | 147 to 148 | 65 | 69 | 81 | 82 | 83 |
| CCCOc1ccc(F)c2c(=O)c(-c3ccc(OC)cc3)cn(CCOCC)c12 [Example 93, 1-(2-Ethoxyethyl)-5-fluoro-3-(4-methoxyphenyl)-8-propoxy-1H-quinolin-4-one] | 108 to 109 | 66 | 79 | 86 | 80 | 69 |
| CCCOc1ccc(F)c2c(=O)c(-c3ccsc3CO)c[nH]c12 [Example 100, 5-Fluoro-3-(2-hydroxymethylthiophen-3-yl)-8-propoxy-1H-quinolin-4-one] | 181 to 184 | 56 | 56 | 71 | 73 | 84 |

The next lines start with results.

| melting point [°C] | Structure (SMILES) | activity at 0.01 µg/mL [1] [%] | activity at 0.03 µg/mL [1] [%] | activity at 0.1 µg/mL [1] [%] | activity at 0.3 µg/mL [1] [%] | activity at 1 µg/mL [1] [%] |
| --- | --- | --- | --- | --- | --- | --- |
| 123 to 125 | CCCOc1ccc(F)c2c(=O)c(-c3ccc(OC)cc3)cn(CC)c12 [Example 92, 1-Ethyl-5-fluoro-3-(4-methoxyphenyl)-8-propoxy-1H-quinolin-4-one] | 63 | 75 | 77 | 69 | 55 |
| 60 to 62 | CCCOc1ccc(F)c2c(=O)c(-c3ccc(OC)cc3)cn(CC3CC3)c12 [Example 94, 1-Cyclopropylmethyl-5-fluoro-3-(4-methoxyphenyl)-8-propoxy-1H-quinolin-4-one] | 56 | 67 | 69 | 59 | 41 |
